These results are taken from US5281406A, “Recovery of C60 and C70 buckminsterfullerenes from carbon soot by supercritical fluid extraction and their separation by adsorption chromatography” (Analytical Bio-Chemistry Laboratories, Inc., priority 1992, dated 1994).

Values after ≈ are worked out from the molar mass of the structure shown. Values joined by “and” are separate entries in the source; they are usually repeats but may differ in a detail not shown here. Equal values may be shown once.

Data set [1] can be described thus: Solubility of C60 and C70 fullerenes in methylene chloride/toluene mixtures. It is filed as physicochemical. From the text:
The solubilities of C60 and C70 were established for the binary solvent system of toluene and methylene chloride using mixtures varying in composition from 100% to 0% of each component.

The nature of data set [2]: Reported or stated solubility in single organic solvents (benzene, liquid toluene, organic solvents). It is filed as physicochemical.
The conditions of data set [3]: room temperature; cited from earlier work.
The conditions of data set [4]: stable to pressures up to; Yoo and Nellis, Science, 254, p. 1489, 1991; cited from earlier work.
For data set [5] the following is noted: many organic solvents, several weeks; cited from earlier work.
Where [6] appears, read: 0.0% CH2Cl2 / 100% toluene, duplicate samples 1 and 2.
The mark [7] stands for this setting: 25.0% CH2Cl2 / 75% toluene, duplicate samples 3 and 4.
The mark [8] stands for this setting: 50.0% CH2Cl2 / 50% toluene, duplicate samples 5 and 6.
Setting [9] is: 75.0% CH2Cl2 / 25% toluene, duplicate samples 7 and 8.
Where [10] appears, read: 100.0% CH2Cl2 / 0% toluene, duplicate samples 9 and 10.

As to `c12c3c4c5c1c1c6c7c2c2c8c3c3c9c4c4c%10c5c5c1c1c6c6c%11c7c2c2c7c8c3c3c8c9c4c4c9c%10c5c5c1c1c6c6c%11c2c2c7c3c3c8c4c4c9c5c1c1c6c2c3c41` [C60, buckminsterfullerene], the Solubility in data set [1] (setting [6]) is 3530 µg/mL and 3470 µg/mL; in data set [1] (setting [7]) it was 2830 µg/mL (≈ 3930 µM); in data set [1] (setting [8]), 1783 µg/mL and 1797 µg/mL; in data set [1] (setting [9]), 895 µg/mL and 896 µg/mL; in data set [1] (setting [10]), 556 µg/mL and 526 µg/mL. In data set [2], the “Solubility in organic solvents (in words)” value is listed as “very low solubility”. Moreover, the “Reported solubility in benzene” value in data set [3] was 5000 µg/mL. For the same compound, the “Reported stability to pressure” value in data set [4] is “up to 2.5×10^6 psi”. Besides, the “Stability in organic solvents (in words)” value in data set [5] is “stable in many organic solvents for several weeks”.

In the case of `c12c3c4c5c1c1c6c7c2c2c8c3c3c9c4c4c%10c5c5c1c1c6c6c%11c%12c%13c%14c%15c%16c%17c%14c%14c%18c%13c%11c1c1c5c%10c5c(c%14c%10c%17c%11c%13c%16c%14c%16c%15c%12c%12c%16c(c2c7c%126)c2c8c3c(c%13c%142)c2c9c4c5c%10c%112)c%181` [C70], the Solubility in data set [1] (setting [6]) is 611 µg/mL and 597 µg/mL; in data set [1] (setting [7]), 500 µg/mL (≈ 595 µM); in data set [1] (setting [8]) it was 328 µg/mL and 330 µg/mL; in data set [1] (setting [9]), 184 µg/mL (≈ 219 µM); in data set [1] (setting [10]), 106 µg/mL and 95 µg/mL. Further, the “Solubility in organic solvents (in words)” value in data set [2] is reported as “very low solubility”.
